Source: ChEMBL document CHEMBL4422630, “Identification of substituted 5-membered heterocyclic compounds as potential anti-leukemic agents” (Eur J Med Chem, 2019)
The source made the active and inactive calls. The rule behind the calls is not given here.

Key:
[1] = Apparent permeability of compound form apical to basolateral side in human Caco2 cells; type: ADME, cell-based; conditions: Caco-2
[2] = Apparent permeability of compound form basolateral to apical side in human Caco2 cells; type: ADME, cell-based; conditions: Caco-2
[3] = Efflux ratio of apparent permeability across basolateral to apical side over apical to basolateral side in human Caco2 cells; type: ADME, cell-based; conditions: Caco-2
UoC-B1 = assay: Antiproliferative activity against human UOCB1 assessed as reduction in cell viability after 72 hrs by CellTiter-Glo assay; type: functional, cell-based; conditions: UoC-B1, 72 h
B-ALL [4] = assay: Antiproliferative activity against mouse B-ALL BCR-ABL double knockout cells assessed as reduction in cell viability after 72 hrs by CellTiter-Glo assay; type: functional, cell-based
SUP-B15 [5] = assay: Antiproliferative activity against human SUP-B15 assessed as reduction in cell viability after 72 hrs by CellTiter-Glo assay; type: functional, cell-based; conditions: SUP-B15, 72 h
[6] = Therapeutic index, ratio of EC50 for human BJ cells to EC50 for mouse B-ALL cells expressing wild type BCR-ABL; type: toxicity; conditions: human BJ cells versus mouse B-ALL cells expressing wild type BCR-ABL; read-out: Ratio EC50
NALM-6 = assay: Antiproliferative activity against human NALM6 assessed as reduction in cell viability after 72 hrs by CellTiter-Glo assay; type: functional, cell-based; conditions: NALM-6, 72 h
B-ALL [7] = assay: Antiproliferative activity against mouse B-ALL cells expressing wild type BCR-ABL assessed as reduction in cell viability after 72 hrs by CellTiter-Glo assay; type: functional, cell-based
BJ = assay: Antiproliferative activity against human BJ assessed as cell viability after 72 hrs by CellTiter-Glo assay; type: functional, cell-based
KOPN-8 [8] = assay: Antiproliferative activity against human KOPN8 assessed as reduction in cell viability after 72 hrs by CellTiter-Glo assay; type: functional, cell-based; conditions: KOPN-8, 72 h
[9] = Permeability of compound at pH 7.4 assessed as drug retention by PAMPA; type: ADME
[10] = Half life in simulated gastric fluid; type: ADME
[11] = Permeability of compound at pH 7.4 by PAMPA; type: ADME
SUP-B15 [12] = assay: Induction of apoptosis in human SUP-B15 cells assessed as decrease in cell viability at […] after 24 hrs by ApoTox-Glo triplex assay; type: functional, cell-based
KOPN-8 [13] = assay: Induction of apoptosis in human KOPN8 cells assessed as decrease in cell viability at 5 uM after 24 hrs by Annexin V/propidium iodide staining-based flow cytometric analysis; type: functional
MV4-11 = assay: Antiproliferative activity against human MV411 assessed as reduction in cell viability after 72 hrs by CellTiter-Glo assay; type: functional, cell-based; conditions: MV4-11, 72 h
MDA-MB-231 [14] = assay: Cytotoxicity against human MDA-MB-231 cells at 30 uM after 24 hrs by propidium iodide staining-based fluorescence assay; type: functional, cell-based
SUP-B15 [15] = assay: Induction of apoptosis in human SUP-B15 cells assessed as late apoptotic cells level after 24 hrs by Annexin V and propidium iodide staining based flow cytometry (reference value: 13.5%); type: functional
[16] = Intrinsic clearance in human microsomes; type: ADME, Microsome
[17] = Half life in human microsomes; type: ADME, Microsome
KOPN-8 [18] = assay: Induction of apoptosis in human KOPN8 cells assessed as late apoptotic cells level after 24 hrs by Annexin V and propidium iodide staining based flow cytometry (reference value: 2%); type: functional
MDA-MB-231 [19] = assay: Cytotoxicity against human MDA-MB-231 cells up to 30 uM after 24 hrs by propidium iodide staining-based fluorescence assay; type: functional, cell-based
SUP-B15 [20] = assay: Induction of apoptosis in human SUP-B15 cells assessed as late apoptotic cells level after 24 hrs by Annexin V and propidium iodide staining based flow cytometry (reference value: 83%); type: functional
KOPN-8 [21] = assay: Cell cycle arrest in human KOPN8 cells at 5 uM after 24 hrs by propidium iodide staining-based flow cytometric analysis; type: functional
SUP-B15 [22] = assay: Induction of apoptosis in human SUP-B15 cells assessed as decrease in cell viability at 5 uM after 24 hrs by Annexin V/propidium iodide staining-based flow cytometric analysis; type: functional
[23] = Half life in mouse plasma; type: ADME, cell-free
SUM149PT = assay: Cytotoxicity against human SUM149 cells at 1 uM after 24 hrs by propidium iodide staining-based fluorescence assay relative to control; type: functional, cell-based
[24] = Half life in human plasma; type: ADME, cell-free
B-ALL [25] = assay: Induction of apoptosis in mouse B-ALL BCR-ABL double knockout cells assessed as increase in caspase 3/7 activity after 24 hrs by caspase-Glo 3/7 reagent based luminescence assay; type: functional, cell-based
SUP-B15 [26] = assay: Induction of apoptosis in human SUP-B15 cells assessed as increase in caspase 3/7 activity after 24 hrs by caspase-Glo 3/7 reagent based luminescence assay; type: functional, cell-based
[27] = Half life in mouse microsomes; type: ADME, Microsome
SUP-B15 [28] = assay: Cell cycle arrest in human SUP-B15 cells assessed as accumulation of cells at G1/G0 phase at 5 uM after 24 hrs by propidium iodide staining-based flow cytometric analysis; type: functional
K562 = assay: Antiproliferative activity against human K562 assessed as reduction in cell viability after 72 hrs by CellTiter-Glo assay; type: functional, cell-based; conditions: K562, 72 h
KOPN-8 [29] = assay: Cell cycle arrest in human KOPN8 cells assessed as increase in accumulation of cells at S phase at 5 uM after 24 hrs by propidium iodide staining-based flow cytometric analysis; type: functional
SUP-B15 [30] = assay: Cytotoxicity in human SUP-B15 cells assessed as decrease in cell viability after 24 hrs by bis-AAF-RF110 dye based assay; type: functional
[31] = Intrinsic clearance in mouse microsomes; type: ADME, Microsome
KOPN-8 [32] = assay: Induction of apoptosis in human KOPN8 cells assessed as late apoptotic cells level after 24 hrs by Annexin V and propidium iodide staining based flow cytometry (reference value: 96.4%); type: functional

Compound: CC[C@]1(O)C[C@@H]2CN(CCc3c([nH]c4ccccc34)[C@@](C(=O)OC)(c3cc4c(cc3OC)N(C)[C@H]3[C@@](O)(C(=O)OC)[C@H](OC(C)=O)[C@]5(CC)C=CCN6CC[C@]43[C@@H]65)C2)C1 [VINBLASTINE]
- Papp A→B [1]: 0.621 ×10⁻⁶ cm/s
- Papp B→A [2]: 13.1 ×10⁻⁶ cm/s
- efflux ratio [3]: 21.1

Compound: COc1cc(-c2cc3ccccc3[nH]2)[nH]c1/C=C1\N=C(C)C=C1C
- EC50 (UoC-B1): 1.49 to 1.5 µM
- EC50 (B-ALL [4]): 12.5 µM
- EC50 (SUP-B15 [5]): 25.9 µM
- selectivity ratio [6]: 7
- EC50 (NALM-6): 1.07 µM
- EC50 (B-ALL [7]): 1.24 µM
- EC50 (BJ): 8.71 µM
- EC50 (KOPN-8 [8]): 14.7 µM

Compound: CNC(=C[N+](=O)[O-])NCCSCc1ccc(CN(C)C)o1 [RANITIDINE]
- permeability [9]: 0%

Compound: O=C(c1cc(-c2csc(-c3ccc(O)cc3)n2)c[nH]1)N1CCCC1
- EC50 (UoC-B1): > 43.3 µM
- EC50 (B-ALL [4]): > 43.3 µM
- EC50 (SUP-B15 [5]): > 43.3 µM
- selectivity ratio [6]: > 11
- EC50 (NALM-6): > 43.3 µM
- EC50 (B-ALL [7]): 3.98 µM
- EC50 (BJ): > 43.3 µM
- EC50 (KOPN-8 [8]): > 43.3 µM

Compound: NC(=O)c1sccc1Nc1[nH]c(Nc2cccc(OC(F)(F)F)c2)nc2nncc1-2
- EC50 (UoC-B1): 12.9 µM
- EC50 (B-ALL [4]): 14.6 µM
- EC50 (SUP-B15 [5]): > 43.3 µM
- selectivity ratio [6]: 5
- EC50 (NALM-6): 0.005 µM
- EC50 (B-ALL [7]): 3.14 µM
- EC50 (BJ): 17 µM
- EC50 (KOPN-8 [8]): 13.1 µM

Compound: O=C(O)CCCc1ccc(N(CCCl)CCCl)cc1 [CHLORAMBUCIL]
- half-life [10]: 15.3 h

Compound: COc1ccc(O)c(-c2cc(-c3cc(Cl)ccc3O)[nH]n2)c1
- EC50 (UoC-B1): 13.6 µM
- EC50 (B-ALL [4]): 11.2 µM
- EC50 (SUP-B15 [5]): > 43.3 µM
- selectivity ratio [6]: 5
- EC50 (NALM-6): 0.005 µM
- EC50 (B-ALL [7]): 4.94 µM
- EC50 (BJ): 25.1 µM
- EC50 (KOPN-8 [8]): 15.8 µM

Compound: CS(=O)(=O)c1ccc(-c2cccc3c2OC(CNC(=O)c2ccccc2F)C3)cc1 (stereo not drawn)
- EC50 (UoC-B1): > 43.3 µM
- EC50 (B-ALL [4]): 36.4 µM
- EC50 (SUP-B15 [5]): > 43.3 µM
- selectivity ratio [6]: > 5
- EC50 (NALM-6): 1.75 µM
- EC50 (B-ALL [7]): 8.88 µM
- EC50 (BJ): > 43.3 µM
- EC50 (KOPN-8 [8]): > 43.3 µM

Compound: CC(C)C(=O)Nc1ccc2oc(-c3ccc(C(C)(C)C)cc3)nc2c1
- permeability [9]: 53.6%
- Peff [11]: 1916.4 ×10⁻⁶ cm/s
- Activity (SUP-B15 [12]): Active
- Activity (KOPN-8 [13]): Active
- EC50 (MV4-11): 0.603 µM
- Activity (MDA-MB-231 [14]): Active
- Activity (SUP-B15 [15]): 6.3%
- CLint scaled [16]: 24.3 mL/min/kg
- EC50 (UoC-B1): > 43.3 µM
- half-life [17]: 0.86 h
- Activity (KOPN-8 [18]): 4.8%
- Activity (MDA-MB-231 [19]): inactive
- EC50 (B-ALL [4]): > 43.3 µM
- half-life [10]: > 48 h
- Activity (SUP-B15 [20]): 69.2%
- Activity (KOPN-8 [21]): inactive
- Activity (SUP-B15 [22]): Active
- half-life [23]: > 48 h
- Activity (SUM149PT): Active
- half-life [24]: > 48 h
- Activity (B-ALL [25]): inactive
- Activity (SUP-B15 [26]): Active
- EC50 (SUP-B15 [5]): 1.32 µM
- selectivity ratio [6]: > 9
- half-life [27]: 3.41 h
- EC50 (NALM-6): 0.604 µM
- EC50 (B-ALL [7]): 4.65 µM
- Papp A→B [1]: 7.26 ×10⁻⁶ cm/s
- Activity (SUP-B15 [28]): Active
- EC50 (K562): 8.36 µM
- Papp B→A [2]: 2.26 ×10⁻⁶ cm/s
- EC50 (BJ): > 43.3 µM
- EC50 (KOPN-8 [8]): 1.11 µM
- Activity (KOPN-8 [29]): Active
- efflux ratio [3]: 0.31
- Activity (SUP-B15 [30]): Active
- CLint scaled [31]: 16.8 mL/min/kg
- Activity (KOPN-8 [32]): 94.4%
